Several values for one entry are separate records, joined by “and”; a condition that tells them apart may be missing. Equal values may be shown once. Read-outs that look alike come from different tables or passages of the source.

This is an account of results in publication PMC5069162 (Anesthesiology, 2016).

Series [1] has as its target T1, 11β-hydroxylase (Rattus norvegicus, UniProt P15393).
T1 sequence (P15393 25-499): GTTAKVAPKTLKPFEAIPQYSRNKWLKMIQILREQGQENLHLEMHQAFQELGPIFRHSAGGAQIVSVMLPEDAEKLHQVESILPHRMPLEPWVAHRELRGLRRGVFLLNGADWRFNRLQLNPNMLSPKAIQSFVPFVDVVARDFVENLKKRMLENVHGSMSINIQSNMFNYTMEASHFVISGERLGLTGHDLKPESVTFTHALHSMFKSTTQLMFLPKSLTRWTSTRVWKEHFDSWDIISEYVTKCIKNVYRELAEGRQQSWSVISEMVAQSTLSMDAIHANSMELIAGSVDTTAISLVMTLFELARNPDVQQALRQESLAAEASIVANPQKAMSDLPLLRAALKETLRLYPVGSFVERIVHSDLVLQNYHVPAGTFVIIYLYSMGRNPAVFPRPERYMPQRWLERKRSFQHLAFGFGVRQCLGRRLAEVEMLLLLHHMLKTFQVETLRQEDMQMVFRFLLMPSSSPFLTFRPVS
It counts as binding. To be noted: for Hill coefficient for inhibition of specific 3H-etomidate binding / IC50: 2 nM 3H-etomidate; for Hill coefficient for inhibition of specific 3H-etomidate binding: equation 2; for IC50 higher than that of etomidate: ratio of IC50s for 3H-etomidate binding; for IC50: 0.07 mg/ml protein.

The test system of the next series is rats. To be noted: in rats; cited from earlier work.
The target of series [2] is T1, 11β-hydroxylase. It counts as binding.
A further series has as its system rat adrenocortical cells. The following applies: read-out: IC50 for inhibiting corticosterone synthesis; cited from earlier work.
Series [3] concerns H295R adrenocortical cells. To be noted: cited from earlier work.
In series [4] the target is 11β-hydroxylase. The following applies: estimated by Zolle et al.; cited from earlier work.
The conditions of series [5]: after 2-hr infusion of parent drug in dogs; cited from earlier work.
[6] abbreviates: read-out: half-inhibitory concentration (IC50) for specific 3H-etomidate binding.
The mark [7] stands for this setting: half-inhibitory concentration (IC50) for specific 3H-etomidate binding.

“cyclopropyl methoxycarbonyl metomidate [CPMM]”: on 11β-hydroxylase [1], the “Hill coefficient for inhibition of specific 3H-etomidate binding” value (“Hill coefficient for inhibition” for short) is on record as −0.55 and the “IC50 higher than that of etomidate” value is recorded as 5.5 fold. Moreover, the IC50 at 11β-hydroxylase [1] (setting [6]) stood at 0.143 µM. The hypnotic potency with rats was 0.69 ± 0.04 mg/kg.

In the case of `CCOC(=O)c1cncn1[C@H](C)c1ccccc1` [etomidate, reference compound], binding at 11β-hydroxylase [2] was put at a Kd of 0.021 µM. Besides, the “maximum concentration of binding sites (Bmax), homologous competition” value on 11β-hydroxylase [2] (2 nM 3H-etomidate vs cold etomidate, equation 1) was 11,700 CPM. The “Hill coefficient for inhibition” value at 11β-hydroxylase [1] is recorded as −0.82. For the same compound, in the series with rats, the hypnotic potency is recorded as 0.53 ± 0.17 mg/kg.

As to `Cc1cccc([C@H](C)c2cnc[nH]2)c1C` [dexmedetomidine, reference compound], at 11β-hydroxylase [1], the “Hill coefficient for inhibition” value is −0.33. The IC50 on 11β-hydroxylase [1] (setting [7]) is 2.2 µM; with rat adrenocortical cells, 1 µM.

Take `CCOC(=O)c1cccn1[C@H](C)c1ccccc1` [carboetomidate]: at 11β-hydroxylase [1], the “Hill coefficient for inhibition” value is −0.27 and the “IC50 higher than that of etomidate” value is recorded as 1900 fold. Besides, on 11β-hydroxylase [1] (setting [6]), the IC50 was ≥ 50 µM and 50 µM. Besides, the “IC50 for suppressing in vitro cortisol synthesis higher than etomidate” value in series [3] (H295R adrenocortical cells) is recorded as 2000 fold. Moreover, the “potency at inhibiting cortisol synthesis relative to etomidate” value in series [3] (adrenocortical cell line) was “three orders of magnitude less potent than etomidate”.

Turning to `CC(C)c1cccc(C(C)C)c1O` [propofol, reference compound], the IC50 at 11β-hydroxylase [1] (setting [7]) was more than 100 µM.

For the compound `COC(=O)c1cncn1C(C)c1ccc(I)cc1` (centres unmarked), at 11β-hydroxylase [4], the Kd – broadly, the constant that tells how readily two partners part at equilibrium – was 0.0116 ± 0.0025 µM.

As for `CNC1(c2ccccc2Cl)CCCCC1=O` (centres unmarked) [ketamine, reference compound], the “Hill coefficient for inhibition” value on 11β-hydroxylase [1] is −0.23. Moreover, at 11β-hydroxylase [1] (setting [7]), the IC50 is ≥ 50 µM and 79 µM.

Take `C[C@H](c1ccccc1)n1cncc1C(=O)O` [etomidate-CA]: on 11β-hydroxylase [1], the “Hill coefficient for inhibition” value was −0.32. In addition, the IC50 on 11β-hydroxylase [1] (setting [6]) worked out at 1100 µM. Further, in series [5], the maximal metabolite concentration was 1680 ng/ml and 7.8 μM.
